# Reference: PMC7544826 (Communications Biology, 2020)
# Legend:
# adenosine receptors = conditions: through the adenosine receptors; cited from earlier work
# [1] = in vivo; cited from earlier work
# brain = conditions: at plasma concentration 150 µM; cited from earlier work
# Notum [2] = molecular target: T1, Notum (Homo sapiens, UniProt Q6P988, C330S); experiment: Thermal shift assay (SYPRO Orange) of Notum; conditions: for Thermoflour melting curve fluorescence of Notum: Fig 2c
# T1 sequence (Q6P988 81-451 C330S): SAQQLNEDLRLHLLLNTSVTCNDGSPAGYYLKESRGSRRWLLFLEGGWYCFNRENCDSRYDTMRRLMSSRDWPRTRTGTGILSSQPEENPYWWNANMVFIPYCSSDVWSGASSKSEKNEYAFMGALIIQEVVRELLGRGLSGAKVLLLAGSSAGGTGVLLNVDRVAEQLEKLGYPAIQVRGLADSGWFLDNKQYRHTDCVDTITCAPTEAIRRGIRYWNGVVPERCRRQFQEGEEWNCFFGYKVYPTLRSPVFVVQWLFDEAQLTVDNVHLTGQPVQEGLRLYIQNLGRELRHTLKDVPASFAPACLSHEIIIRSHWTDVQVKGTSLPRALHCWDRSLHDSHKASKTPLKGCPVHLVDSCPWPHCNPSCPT
# Protocol: Reference wells, i.e. solutions without compounds were used to compare the melting temperature (Tm). The experiments were performed in triplicate.
# Notum [3] = molecular target: T1, Notum; experiment: SPR equilibrium binding to biotinylated Notum on streptavidin chip; set-up: The human Notum enzyme core comprising amino acids S81–T451 with a C330S mutation; made in house; dialyzed conditioned medium used without purification; conditions: Fig 2a
smiles,measurement,setting,value
"Cn1c(=O)c2c(ncn2C)n(C)c1=O [caffeine, 1,3,7-trimethylxanthine]",Concentration at which CNS stimulating effects are apparent,adenosine receptors,2.5 µM
same,Plasma concentration at therapeutic use,[1],≤ 150 µM
same,Adverse effects on the brain,brain,does not appear to have adverse effects on the brain
same,Melting temperature (Tm) of Notum,Notum [2],66.4 °C
same,Concentration from which the Tm of Notum starts to increase,"Notum [2]; 2-fold dilution series 1-1000 µM, dose-dependent",32 µM
same,Thermoflour melting curve fluorescence of Notum,"Notum [2]; compound 500 µM, Temperature 24.5",709.927
same,Thermoflour melting curve fluorescence of Notum,"Notum [2]; compound 500 µM, Temperature 25.5",611.276
same,Thermoflour melting curve fluorescence of Notum,"Notum [2]; compound 500 µM, Temperature 26.5",506.395
same,Thermoflour melting curve fluorescence of Notum,"Notum [2]; compound 500 µM, Temperature 27.5",407.771
same,Thermoflour melting curve fluorescence of Notum,"Notum [2]; compound 500 µM, Temperature 28.5",329.046
same,Thermoflour melting curve fluorescence of Notum,"Notum [2]; compound 500 µM, Temperature 29.5",252.252
same,Thermoflour melting curve fluorescence of Notum,"Notum [2]; compound 500 µM, Temperature 30.5",185.878
same,Thermoflour melting curve fluorescence of Notum,"Notum [2]; compound 500 µM, Temperature 31.5",116.312
same,Thermoflour melting curve fluorescence of Notum,"Notum [2]; compound 500 µM, Temperature 32.5",36.8288
same,Thermoflour melting curve fluorescence of Notum,"Notum [2]; compound 500 µM, Temperature 33.5",-33.9223
same,Thermoflour melting curve fluorescence of Notum,"Notum [2]; compound 500 µM, Temperature 34.5",-98.3184
same,Thermoflour melting curve fluorescence of Notum,"Notum [2]; compound 500 µM, Temperature 35.5",-160.078
same,Thermoflour melting curve fluorescence of Notum,"Notum [2]; compound 500 µM, Temperature 36.5",-227.439
same,Thermoflour melting curve fluorescence of Notum,"Notum [2]; compound 500 µM, Temperature 37.5",-299.113
same,Thermoflour melting curve fluorescence of Notum,"Notum [2]; compound 500 µM, Temperature 38.5",-356.595
same,Thermoflour melting curve fluorescence of Notum,"Notum [2]; compound 500 µM, Temperature 39.5",-384.234
same,Thermoflour melting curve fluorescence of Notum,"Notum [2]; compound 500 µM, Temperature 40.5",-401.667
same,Thermoflour melting curve fluorescence of Notum,"Notum [2]; compound 500 µM, Temperature 41.5",-422.587
same,Thermoflour melting curve fluorescence of Notum,"Notum [2]; compound 500 µM, Temperature 42.5",-436.447
same,Thermoflour melting curve fluorescence of Notum,"Notum [2]; compound 500 µM, Temperature 43.5",-433.953
same,Thermoflour melting curve fluorescence of Notum,"Notum [2]; compound 500 µM, Temperature 44.5",-407.23
same,Thermoflour melting curve fluorescence of Notum,"Notum [2]; compound 500 µM, Temperature 45.5",-370.506
same,Thermoflour melting curve fluorescence of Notum,"Notum [2]; compound 500 µM, Temperature 46.5",-329.743
same,Thermoflour melting curve fluorescence of Notum,"Notum [2]; compound 500 µM, Temperature 47.5",-279.561
same,Thermoflour melting curve fluorescence of Notum,"Notum [2]; compound 500 µM, Temperature 48.5",-224.386
same,Thermoflour melting curve fluorescence of Notum,"Notum [2]; compound 500 µM, Temperature 49.5",-154.955
same,Thermoflour melting curve fluorescence of Notum,"Notum [2]; compound 500 µM, Temperature 50.5",-68.5872
same,Thermoflour melting curve fluorescence of Notum,"Notum [2]; compound 500 µM, Temperature 51.5",21.0565
same,Thermoflour melting curve fluorescence of Notum,"Notum [2]; compound 500 µM, Temperature 52.5",104.977
same,Thermoflour melting curve fluorescence of Notum,"Notum [2]; compound 500 µM, Temperature 53.5",203.138
same,Thermoflour melting curve fluorescence of Notum,"Notum [2]; compound 500 µM, Temperature 54.5",335.417
same,Thermoflour melting curve fluorescence of Notum,"Notum [2]; compound 500 µM, Temperature 55.5",489.845
same,Thermoflour melting curve fluorescence of Notum,"Notum [2]; compound 500 µM, Temperature 56.5",650.176
same,Thermoflour melting curve fluorescence of Notum,"Notum [2]; compound 500 µM, Temperature 57.5",838.955
same,Thermoflour melting curve fluorescence of Notum,"Notum [2]; compound 500 µM, Temperature 58.5",1115.22
same,Thermoflour melting curve fluorescence of Notum,"Notum [2]; compound 500 µM, Temperature 59.5",1497.71
same,Thermoflour melting curve fluorescence of Notum,"Notum [2]; compound 500 µM, Temperature 60.5",2046.51
same,Thermoflour melting curve fluorescence of Notum,"Notum [2]; compound 500 µM, Temperature 61.5",2842.67
same,Thermoflour melting curve fluorescence of Notum,"Notum [2]; compound 500 µM, Temperature 62.5",4016.35
same,Thermoflour melting curve fluorescence of Notum,"Notum [2]; compound 500 µM, Temperature 63.5",5616.14
same,Thermoflour melting curve fluorescence of Notum,"Notum [2]; compound 500 µM, Temperature 64.5",7625.37
same,Thermoflour melting curve fluorescence of Notum,"Notum [2]; compound 500 µM, Temperature 65.5",9844.37
same,Thermoflour melting curve fluorescence of Notum,"Notum [2]; compound 500 µM, Temperature 66.5",11980.7
same,Thermoflour melting curve fluorescence of Notum,"Notum [2]; compound 500 µM, Temperature 67.5",13878
same,Thermoflour melting curve fluorescence of Notum,"Notum [2]; compound 500 µM, Temperature 68.5",15429.9
same,Thermoflour melting curve fluorescence of Notum,"Notum [2]; compound 500 µM, Temperature 69.5",16655.6
same,Thermoflour melting curve fluorescence of Notum,"Notum [2]; compound 500 µM, Temperature 70.5",17623.3
same,Thermoflour melting curve fluorescence of Notum,"Notum [2]; compound 500 µM, Temperature 71.5",18396.4
same,Thermoflour melting curve fluorescence of Notum,"Notum [2]; compound 500 µM, Temperature 72.5",18998.9
same,Thermoflour melting curve fluorescence of Notum,"Notum [2]; compound 500 µM, Temperature 73.5",19494.1
same,Thermoflour melting curve fluorescence of Notum,"Notum [2]; compound 500 µM, Temperature 74.5",19890
same,Thermoflour melting curve fluorescence of Notum,"Notum [2]; compound 500 µM, Temperature 75.5",20222.9
same,Thermoflour melting curve fluorescence of Notum,"Notum [2]; compound 500 µM, Temperature 76.5",20511.4
same,Thermoflour melting curve fluorescence of Notum,"Notum [2]; compound 500 µM, Temperature 77.5",20720.5
same,Thermoflour melting curve fluorescence of Notum,"Notum [2]; compound 500 µM, Temperature 78.5",20881
same,Thermoflour melting curve fluorescence of Notum,"Notum [2]; compound 500 µM, Temperature 79.5",21035.4
same,Thermoflour melting curve fluorescence of Notum,"Notum [2]; compound 500 µM, Temperature 80.5",21171.7
same,Thermoflour melting curve fluorescence of Notum,"Notum [2]; compound 500 µM, Temperature 81.5",21266.6
same,Thermoflour melting curve fluorescence of Notum,"Notum [2]; compound 500 µM, Temperature 82.5",21332.1
same,Thermoflour melting curve fluorescence of Notum,"Notum [2]; compound 500 µM, Temperature 83.5",21375.7
same,Thermoflour melting curve fluorescence of Notum,"Notum [2]; compound 500 µM, Temperature 84.5",21418.3
same,Thermoflour melting curve fluorescence of Notum,"Notum [2]; compound 500 µM, Temperature 85.5",21484.5
same,Thermoflour melting curve fluorescence of Notum,"Notum [2]; compound 500 µM, Temperature 86.5",21557.9
same,Thermoflour melting curve fluorescence of Notum,"Notum [2]; compound 500 µM, Temperature 87.5",21630
same,Thermoflour melting curve fluorescence of Notum,"Notum [2]; compound 500 µM, Temperature 88.5",21668.9
same,Thermoflour melting curve fluorescence of Notum,"Notum [2]; compound 500 µM, Temperature 89.5",21631
same,Thermoflour melting curve fluorescence of Notum,"Notum [2]; compound 500 µM, Temperature 90.5",21594.2
same,Thermoflour melting curve fluorescence of Notum,"Notum [2]; compound 500 µM, Temperature 91.5",21585.2
same,Thermoflour melting curve fluorescence of Notum,"Notum [2]; compound 500 µM, Temperature 92.5",21573.1
same,Thermoflour melting curve fluorescence of Notum,"Notum [2]; compound 500 µM, Temperature 93.5",21559.5
same,Thermoflour melting curve fluorescence of Notum,"Notum [2]; compound 500 µM, Temperature 94.5",21527.2
same,Thermoflour melting curve fluorescence of Notum,"Notum [2]; compound 500 µM, Temperature 95.5",21485.4
same,Thermoflour melting curve fluorescence of Notum,"Notum [2]; compound 500 µM, Temperature 96.5",21486.2
same,Thermoflour melting curve fluorescence of Notum,"Notum [2]; compound 500 µM, Temperature 97.5",21505.1
same,∆Tm of Notum,"Notum [2]; compound 500 µM, versus Notum without compounds",2.8 °C
same,SPR Response,Notum [3]; caffeine conc. 2.861e-8 (unit not given),1.14
same,SPR Response,Notum [3]; caffeine conc. 5.722e-8 (unit not given),2.29
same,SPR Response,Notum [3]; caffeine conc. 1.144e-7 (unit not given),3.61
same,SPR Response,Notum [3]; caffeine conc. 2.289e-7 (unit not given),4.16
same,SPR Response,Notum [3]; caffeine conc. 4.578e-7 (unit not given),4.74
same,SPR Response,Notum [3]; caffeine conc. 9.155e-7 (unit not given),5.58
same,SPR Response,Notum [3]; caffeine conc. 1.831e-6 (unit not given),6.88
same,SPR Response,Notum [3]; caffeine conc. 3.662e-6 (unit not given),9.64
same,SPR Response,Notum [3]; caffeine conc. 7.324e-6 (unit not given),12.15
same,SPR Response,Notum [3]; caffeine conc. 1.465e-5 (unit not given),16.8
same,SPR Response,Notum [3]; caffeine conc. 2.93e-5 (unit not given),23.59
same,SPR Response,Notum [3]; caffeine conc. 5.859e-5 (unit not given),31.69
same,SPR Response,Notum [3]; caffeine conc. 0.0001172 (unit not given),41.28
same,SPR Response,Notum [3]; caffeine conc. 0.0002344 (unit not given),50.77
same,SPR Response,Notum [3]; caffeine conc. 0.0004687 (unit not given),61.29
same,SPR Response,Notum [3]; caffeine conc. 0.0009375 (unit not given),71.68
same,SPR Response,Notum [3]; caffeine conc. 0.001875 (unit not given),81.69
